Patent US7482308B2, “Difluoromethanesulfonyl anilide derivatives useful as herbicides” (Bayer CropScience AG, priority 2004, dated 2009)

Columns and labels:
Type in all cases: in vivo
[1] = test system: Cyperus serotinus Rottboel; assay: Test for residual effectiveness against paddy field weeds (Test Example 2); settings: 60 g ai/ha; period of maintaining herbicidal effect of higher than 80%
From the text: (§1) In a green house a 1000 cm^2 pot was filled with paddy field soil and water was poured to a depth of about 2 to 3 cm. A prescribed, diluted solution of the above-mentioned Test Example 1, was applied to the surface of water. After the prescribed time after the treatment (just after treatment, 1 week, 2 weeks, 3 weeks, 4 weeks, 5 weeks, 6 weeks and 7 weeks after treatment), seeds or tubers of the weeds to be tested Scirpus juncoides Roxburgh, Monochoria vaginalis Presi, annual broad-leaved weeds (Lindernia procumbens Philcox, Rotala indica Koehne, Elatine triandra Schk, Ammannia multiflora Roxb., etc.), Cyperus serotinus Rottboel and Sagittaria pygmaea Miq. were inoculated. Three weeks after the inoculation each herbicidal effect was examined.
(§2) The evaluation of the residual effectiveness was shown as the period (number of weeks) of maintaining herbicidal effect of higher than 80%, after the evaluation of herbicidal effect had been conducted in the similar manner as the above-mentioned Test Example 1.

[2] = test system: Sagittaria pygmaea Miq.; assay: as above; settings: 60 g ai/ha; period of maintaining herbicidal effect of higher than 80%
From the text: as §1, §2

[3] = test system: Monochoria vaginalis Presi; assay: as above; settings: 60 g ai/ha; period of maintaining herbicidal effect of higher than 80%
From the text: as §1, §2

[4] = test system: annual broad-leaved weeds; assay: as above; settings: 60 g ai/ha; period of maintaining herbicidal effect of higher than 80%
From the text: as §1, §2

[5] = test system: Scirpus juncoides Roxburgh; assay: as above; settings: 60 g ai/ha; period of maintaining herbicidal effect of higher than 80%
From the text: as §1, §2

[6] = test system: sulfonylurea resistant Lindernia procumbens Philcox (collected in Higashi-Hiroshima area, Hiroshima Pref.); assay: Test for herbicidal effect against sulfonylurea resistant weeds (Test Example 3); settings: applied at beginning of emergence, examined 3 weeks after treatment
From the text: (§3) In a green house seeds of Scirpus juncoides Roxburgh (collected in Iwamizawa area, Hokkaido), Lindernia procumbens Philcox (collected in Kazo area, Saitama Pref.), Lindernia procumbens Philcox (collected in Higashi-Hiroshima area, Hiroshima Pref.), Elatine triandra Schk (collected in Kazo area, Saitama Pref.), all of which were confirmed as sulfonylurea resistant, were inoculated in a 20 cm^2 cup filled with paddy field soil. Then water was poured to a depth of about 2 to 3 cm. At the beginning of emergence of each weed, a prescribed, diluted solution of the formulation of each active compound prepared in the same manner as the above-mentioned Test Example 1 was applied to the surface of water. After the treatment the water depth of 3 cm was maintained and the herbicidal effect was examined after 3 weeks from the treatment. The evaluation of the herbicidal effect was conducted in the same manner as the above-mentioned Test Example 1. In case of showing higher than 80% herbicidal effect, it is evaluated as practical as herbicide. In consideration of the possibility that the biological properties including herbicide resistance of the plants grown in different areas might be different, sulfonylurea resistant Lindernia procumbens Philcox collected in two different areas were used in the present tests. The study results with the compounds No. 1, 3, 11 and 17 and the comparative compound No. C-1 as specific examples are shown in the following Table 6.

[7] = test system: sulfonylurea resistant Lindernia procumbens Philcox (collected in Kazo area, Saitama Pref.); assay: as above; settings: applied at beginning of emergence, examined 3 weeks after treatment
From the text: as §3

[8] = test system: sulfonylurea resistant Elatine triandra Schk (collected in Kazo area, Saitama Pref.); assay: as above; settings: applied at beginning of emergence, examined 3 weeks after treatment
From the text: as §3

[9] = test system: sulfonylurea resistant Scirpus juncoides Roxburgh (collected in Iwamizawa area, Hokkaido); assay: as above; settings: applied at beginning of emergence, examined 3 weeks after treatment
From the text: as §3

[10] = test system: Cyperus serotinus Rottboel; assay: Test for herbicidal effect against paddy field weeds (Test Example 1); settings: examined 3 weeks after treatment
Method: (§4) Preparation of Formulation of the Active Compound
(§5) • Carrier: DMF 5 parts by weight • Emulsifier: Benzyloxy polyglycol ether 1 part by weight
(§6) A formulation of an active compound is obtained as an emulsifiable concentrate by mixing 1 part by weight of the active compound with the above-mentioned amount of the carrier and emulsifier. A prescribed amount of the formulation is diluted with water.
(§7) In a green house seeds or tubers of Scirpus juncoides Roxburgh, Monochoria vaginalis Presi, annual broad-leaved weeds (Lindemia procumbens Philcox, Rotala indica Koehne, Elatine triandra Schk, Ammannia multiflora Roxb., etc.), Cyperus serotinus Rottboel were inoculated in a 500 cm^2 pot filled with paddy field soil. Then water was poured to a depth of about 2-3 cm. Five days and 13 days after inoculation, a prescribed, diluted solution of the formulation of each active compound, prepared according to the aforementioned preparation method, was applied to the surface of water. After the treatment the water depth of 3 cm was maintained and the herbicidal effect was examined after 3 weeks from the treatment.
(§8) The herbicidal effect was rated 100% in the case of complete death and as 0% in the case of no herbicidal effect. In case of showing higher than 80% herbicidal effect, it is evaluated as practical as herbicide.

[11] = test system: Monochoria vaginalis Presi; assay: as above; settings: examined 3 weeks after treatment
Method: as §4, §5, §6, §7, §8

[12] = test system: annual broad-leaved weeds; assay: as above; settings: examined 3 weeks after treatment
Method: as §4, §5, §6, §7, §8

[13] = test system: Scirpus juncoides Roxburgh; assay: as above; settings: examined 3 weeks after treatment
Method: as §4, §5, §6, §7, §8

[14] = test system: transplanted rice (var. Nipponbare); assay: Test for phytotoxicity to transplanted rice (Test Example 4); settings: 60 g ai/ha, application 5 days after transplanting, examined 2 weeks after treatment
Method: The phytotoxicity to transplanted rice was evaluated under the conditions with more shallow planting depths than usual depth of 2 cm, simulating the severe condition for herbicides to cause rice injury in the paddy. In a greenhouse 2 to 2.5 leaf-stage of rice (var. Nipponbare) was transplanted at three different depths, in a 1000 cm^2 pot filled with paddy field soil. Then water was poured to a depth of about 2 to about 3 cm. Five days after transplanting, a prescribed, diluted solution of the formulation of each active compound, prepared in the same manner as the above-mentioned Test Example 1, was applied to the surface of water. After the treatment the water depth of 3 cm was maintained and the rice injury was examined after 2 weeks from the treatment. The rice injury was rated 100% in the case of complete death and as 0% in the case of no injury. In case of showing less than 20% injury, it is evaluated as practical as rice herbicide.

[15] = 15 g ai/ha, application 5 days after inoculation
[16] = 15 g ai/ha, application 13 days after inoculation
[17] = 30 g ai/ha, application 5 days after inoculation
[18] = 30 g ai/ha, application 13 days after inoculation

| Structure (SMILES) | period showing sufficient residual herbicidal effectiveness Cyperus serotinus [1] | period showing sufficient residual herbicidal effectiveness Sagittaria pygmaea [2] | period showing sufficient residual herbicidal effectiveness Monochoria vaginalis [3] | period showing sufficient residual herbicidal effectiveness broad-leaved weeds [4] | period showing sufficient residual herbicidal effectiveness Scirpus juncoides [5] | herbicidal effect against sulfonylurea resistant weeds Lindernia procumbens (collected in Higashi-Hiroshima area, Hiroshima Pref.) ([6]; 30 g ai/ha) | herbicidal effect against sulfonylurea resistant weeds Lindernia procumbens (collected in Higashi-Hiroshima area, Hiroshima Pref.) ([6]; 60 g ai/ha) | herbicidal effect against sulfonylurea resistant weeds Lindernia procumbens (collected in Kazo area, Saitama Pref.) ([7]; 30 g ai/ha) | herbicidal effect against sulfonylurea resistant weeds Lindernia procumbens (collected in Kazo area, Saitama Pref.) ([7]; 60 g ai/ha) | herbicidal effect against sulfonylurea resistant weeds Elatine triandra (collected in Kazo area, Saitama Pref.) ([8]; 30 g ai/ha) | herbicidal effect against sulfonylurea resistant weeds Elatine triandra (collected in Kazo area, Saitama Pref.) ([8]; 60 g ai/ha) | herbicidal effect against sulfonylurea resistant weeds Scirpus juncoides (collected in Iwamizawa area, Hokkaido) ([9]; 30 g ai/ha) | herbicidal effect against sulfonylurea resistant weeds Scirpus juncoides (collected in Iwamizawa area, Hokkaido) ([9]; 60 g ai/ha) | herbicidal effect Cyperus serotinus [10, 15] | herbicidal effect Cyperus serotinus [10, 16] | herbicidal effect Cyperus serotinus [10, 17] | herbicidal effect Cyperus serotinus [10, 18] | herbicidal effect Monochoria vaginalis [11, 15] | herbicidal effect Monochoria vaginalis [11, 16] | herbicidal effect Monochoria vaginalis [11, 17] | other results |
| --- | --- | --- | --- | --- | --- | --- | --- | --- | --- | --- | --- | --- | --- | --- | --- | --- | --- | --- | --- | --- | --- |
| COc1cc(OC)nc(C(O)c2cccc(F)c2NS(=O)(=O)C(F)F)n1 (stereo not drawn) [Compound 1, 2-fluoro-6-[(4,6-dimethoxypyrimidin-2-yl)hydroxymethyl]-N-difluoromethanesulfonanilide] | 3 week | 3 week | 4 week | 3 week | 6 week | 100% | 100% | 95% | 100% | 100% | 100% | 100% | 100% | 100% | 95% | 100% | 100% | 100% | 100% | 100% | herbicidal effect Monochoria vaginalis [11, 18]: 100%; herbicidal effect broad-leaved weeds [12, 15]: 100%; herbicidal effect broad-leaved weeds [12, 16]: 95%; herbicidal effect broad-leaved weeds [12, 17]: 100%; herbicidal effect broad-leaved weeds [12, 18]: 100%; herbicidal effect Scirpus juncoides [13, 15]: 100%; herbicidal effect Scirpus juncoides [13, 16]: 100%; herbicidal effect Scirpus juncoides [13, 17]: 100%; herbicidal effect Scirpus juncoides [13, 18]: 100% |
| COc1cc(OC)nc(C(O)c2cccc(F)c2NS(=O)(=O)C(F)(F)F)n1 (stereo not drawn) [Compound C-1, reference compound] | 1 week | 1 week | <1 week | <1 week | 2 week | 50% | 80% | 40% | 60% | 60% | 70% | 60% | 70% | 70% | 60% | 80% | 60% | 60% | 50% | 80% | phytotoxicity to transplanted rice depth 0.5 cm ([14]; planting depth 0.5 cm): 35%; phytotoxicity to transplanted rice depth 2 cm ([14]; planting depth 2 cm): 20%; herbicidal effect Monochoria vaginalis [11, 18]: 60%; herbicidal effect broad-leaved weeds [12, 15]: 50%; herbicidal effect broad-leaved weeds [12, 16]: 40%; herbicidal effect broad-leaved weeds [12, 17]: 80%; herbicidal effect broad-leaved weeds [12, 18]: 60%; herbicidal effect Scirpus juncoides [13, 15]: 70%; herbicidal effect Scirpus juncoides [13, 16]: 60%; herbicidal effect Scirpus juncoides [13, 17]: 80%; herbicidal effect Scirpus juncoides [13, 18]: 70% |
